Measurements as given in patent publication US10590129B2 (Incozen Therapeutics Pvt. Ltd., priority 2010, dated 2020).

Assays:
MKN-45 cells = test: Inhibition of MKN-45 proliferation (MTT); assay type: cell-based, human; conditions: for inhibition at 1 µM / inhibition at 0.1 µM: Homo sapiens, MKN-45, MKN-45 proliferation; for inhibition at 0.1 µM / Inhibition (% Inhibition of MKN-45 proliferation): 0.1 μM; for Inhibition (% Inhibition of MKN-45 proliferation) / % inhibition @ 1 uM: MKN-45 proliferation
Outline: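 Viability measured by MTT dye reduction on day 5 after compound addition on day 2 to MKN-45 gastric adenocarcinoma cells (high Met expression) seeded on day 1 in complete medium.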

melting point	SMILES	inhibition at 1 µM (MKN-45 cells)	inhibition at 0.1 µM (MKN-45 cells)	Inhibition (% Inhibition of MKN-45 proliferation) (MKN-45 cells)	% inhibition @ 1 uM (MKN-45 cells)
140 to 142 °C	FC(F)(F)Oc1cccc(-c2ccc3nnn(Cc4ccc5ncccc5c4)c3n2)c1 [Ex 23, 6-((5-(3-(trifluoromethoxy)phenyl)-3H-[1,2,3]triazolo[4,5-b]pyridin-3-yl)methyl)quinoline]	< 25%	–	–	–
122 to 125 °C	FC(F)Oc1cccc(-c2ccc3nnn(Cc4ccc5ncccc5c4)c3n2)c1 [Ex 25, 6-((5-(3-(difluoromethoxy)phenyl)-3H-[1,2,3]triazolo[4,5-b]pyridin-3-yl)methyl) quinoline]	< 25%	–	–	–
193 to 196 °C	CCNC(=O)Nc1ccc(-c2ccc3nnn(Cc4ccc5ncccc5c4)c3n2)cc1 [Ex 118, 1-Ethyl-3-(4-(3-(quinolin-6-ylmethyl)-3H-[1,2,3]triazolo[4,5-b]pyridin-5-yl)phenyl)urea]	75 to 100%	< 25%	–	–
145 to 147 °C	CONC(=O)c1ccc(-c2ccc3nnn(Cc4ccc5ncccc5c4)c3n2)cc1F.Cl [Ex 110, 2-Fluoro-N-methoxy-4-(3-(quinolin-6-ylmethyl)-3H-[1,2,3]triazolo[4,5-b]pyridin-5-yl)benzamide hydrochloride]	–	–	B (B = ≥50-<75%)	B (B = ≥50-<75%)
145 to 147 °C	Fc1cccc(-c2ccc3nnn(Cc4ccc5ncccc5c4)c3n2)c1 [Ex 56, 6-((5-(3-Fluorophenyl)-3H-[1,2,3]triazolo[4,5-b]pyridin-3-yl)methyl)quinoline]	< 25%	< 25%	–	–
163 to 165 °C	CN(C)C(=O)c1ccc(-c2ccc3nnn(Cc4ccc5ncccc5c4)c3n2)cc1F [Ex 49, 2-Fluoro-N,N-dimethyl-4-(3-(quinolin-6-ylmethyl)-3H-[1,2,3]triazolo[4,5-b]pyridin-5-yl)benzamide]	25 to 50%	< 25%	–	–
160 to 162 °C	Fc1cc(-c2ccc3nnn(Cc4ccc5ncccc5c4)c3n2)ccc1OCC1CC1 [Ex 79, 6-((5-(4-(Cyclopropylmethoxy)-3-fluorophenyl)-3H-[1,2,3]triazolo[4,5-b]pyridin-3-yl)methyl)quinoline]	50 to 75%	< 25%	–	–
120 to 122 °C	O=C(NCC1CC1)c1ccc(-c2ccc3nnn(Cc4ccc5ncccc5c4)c3n2)cc1F [Ex 90, N-(Cyclopropylmethyl)-2-fluoro-4-(3-(quinolin-6-ylmethyl)-3H-[1,2,3]triazolo[4,5-b]pyridin-5-yl)benzamide]	75 to 100%	50 to 75%	–	–
212 to 215 °C	O=C(NCCC(=O)N1CCOCC1)c1ccc(-c2ccc3nnn(Cc4ccc5ncccc5c4)c3n2)cc1F [Ex 120, 2-Fluoro-N-(3-morpholino-3-oxopropyl)-4-(3-(quinolin-6-ylmethyl)-3H-[1,2,3]triazolo[4,5-b]pyridin-5-yl)benzamide]	25 to 50%	75 to 100%	–	–
144 to 147 °C	O=C(NCc1ccco1)c1ccc(-c2ccc3nnn(Cc4ccc5ncccc5c4)c3n2)cc1F [Ex 92, 2-Fluoro-N-(furan-2-ylmethyl)-4-(3-(quinolin-6-ylmethyl)-3H-[1,2,3]triazolo[4,5-b]pyridin-5-yl)benzamide]	< 25%	–	–	–
244 to 246 °C	Nc1ncc(-c2ccc3nnn(Cc4ccc5ncccc5c4)c3n2)cn1 [Ex 180, 5-(3-(Quinolin-6-ylmethyl)-3H-[1,2,3]triazolo[4,5-b]pyridin-5-yl)pyrimidin-2-amine]	25 to 50%	< 25%	–	–
197 to 199 °C	CONC(=O)c1ccc(-c2ccc3nnn(Cc4ccc5ncccc5c4)c3n2)cc1F [Ex 62, 2-Fluoro-N-methoxy-4-(3-(quinolin-6-ylmethyl)-3H-[1,2,3]triazolo[4,5-b]pyridin-5-yl)benzamide]	–	–	A (A = ≥75 to 100%)	A (A = ≥75 to 100%)
